For two compounds, Km and K i results are on record in PMC5460133 (Scientific Reports, 2017).

For assay [1], the system named is T1, Sb-PDE.
T1 construct: native enzyme purified from Sphingobium sp; TCM1; signal peptide removed; mature 413 residues, N-terminus EFVTQSDQRPP (residues 29-39 of 441); homodimer, 116 kDa; zinc-containing; PHP superfamily
In kind it is biochemical, Sphingobium sp. TCM1.

Assay [2] relates to T1, Sb-PDE. In kind it is biochemical, Sphingobium sp. TCM1. This is another data set of the same source.

One may read the Km as the concentration of substrate that gives half-maximal velocity. On to `O=[N+]([O-])c1ccc(OP(=O)(O)Oc2ccc([N+](=O)[O-])cc2)cc1` [BpNPP], for which the Km in the assay on Sb-PDE [1] was 6.1 ± 1.2 mM. The same compound showed a K i in the assay with Sb-PDE [2] of 12.5 ± 3.1 mM. On to `O=[N+]([O-])c1ccc(OP(=O)(O)O)cc1` [pNPP], for which the Michaelis constant (Km) in the assay on Sb-PDE [1] came to 1.5 ± 0.2 mM.
